The text below walks through data of ChEMBL document CHEMBL4130375, “Design, synthesis and biological evaluation of 4-amidobenzimidazole acridine derivatives as dual PARP and Topo inhibitors for cancer therapy” (Eur J Med Chem, 2017).

Activity calls are given as the source filed them. The rule behind the calls is not given here.

For series [1], the target named is DNA topoisomerase 2-alpha (Homo sapiens) (UniProt P11388). The series can be described thus: Poison activity at topoisomerase-2 in human MCF7 cells assessed as enzyme-DNA complex formation by measuring decrease in topoisomerase-2 protein expression after 24 hrs by Western blot analysis. The series is classed as cell-based.
Series [2] has as its system MCF7. Briefly: Downregulation of full length PARP protein expression in human MCF7 cells up to 10 uM after 24 hrs by Western blot method. Format: functional, cell-based.
A short description of series [3]: Half life in human liver microsomes at 1.11 uM preincubated for 5 mins followed by NADPH addition by LC-MS/MS analysis. Format: ADME, microsome.
Series [4] has as its system MCF7. The series can be described thus: Induction of apoptosis in human MCF7 cells assessed as necrotic cells at 1 uM after 48 hrs by Annexin V-FITC/propidium iodide staining based flow cytometry (reference value: 0%). The series is classed as functional.
The subject of series [5] is MCF7. The series can be described thus: Induction of apoptosis in human MCF7 cells assessed as early apoptotic cells at 5 uM after 48 hrs by Annexin V-FITC/propidium iodide staining based flow cytometry (reference value: 0.108%). The series is classed as functional.
Series [6] can be described thus: Intrinsic clearance in rat liver microsomes at 1.11 uM preincubated for 5 mins followed by NADPH addition by LC-MS/MS analysis. The series is classed as ADME, microsome. Particulars: read-out: CLH.
Series [7] relates to MCF7. The series can be described thus: Upregulation of cleaved caspase-9 protein expression in human MCF7 cells after 24 hrs by Western blot method. Format: functional, cell-based.
Series [8] has as its system MCF7. Briefly: Induction of apoptosis in human MCF7 cells assessed as live cells at 10 uM after 48 hrs by Annexin V-FITC/propidium iodide staining based flow cytometry (reference value: 99.9%). The series is classed as functional.
For series [9], the system named is MCF7. Briefly: Cell cycle arrest in human MCF7 cells assessed as accumulation at G0/G1 phase at 5 uM after 24 hrs by propidium iodide staining based flow cytometry (reference value: 17.67 +/- 1.25%). The series is classed as functional.
A further series deals with HCC1937. The series can be described thus: Potency index, ratio of m-AMSA IC50 to compound IC50 for human HCC1937 cells harboring BRCA1 mutant. The series is classed as functional.

Chain of DNA topoisomerase 2-alpha (Homo sapiens) (P11388 whole entry): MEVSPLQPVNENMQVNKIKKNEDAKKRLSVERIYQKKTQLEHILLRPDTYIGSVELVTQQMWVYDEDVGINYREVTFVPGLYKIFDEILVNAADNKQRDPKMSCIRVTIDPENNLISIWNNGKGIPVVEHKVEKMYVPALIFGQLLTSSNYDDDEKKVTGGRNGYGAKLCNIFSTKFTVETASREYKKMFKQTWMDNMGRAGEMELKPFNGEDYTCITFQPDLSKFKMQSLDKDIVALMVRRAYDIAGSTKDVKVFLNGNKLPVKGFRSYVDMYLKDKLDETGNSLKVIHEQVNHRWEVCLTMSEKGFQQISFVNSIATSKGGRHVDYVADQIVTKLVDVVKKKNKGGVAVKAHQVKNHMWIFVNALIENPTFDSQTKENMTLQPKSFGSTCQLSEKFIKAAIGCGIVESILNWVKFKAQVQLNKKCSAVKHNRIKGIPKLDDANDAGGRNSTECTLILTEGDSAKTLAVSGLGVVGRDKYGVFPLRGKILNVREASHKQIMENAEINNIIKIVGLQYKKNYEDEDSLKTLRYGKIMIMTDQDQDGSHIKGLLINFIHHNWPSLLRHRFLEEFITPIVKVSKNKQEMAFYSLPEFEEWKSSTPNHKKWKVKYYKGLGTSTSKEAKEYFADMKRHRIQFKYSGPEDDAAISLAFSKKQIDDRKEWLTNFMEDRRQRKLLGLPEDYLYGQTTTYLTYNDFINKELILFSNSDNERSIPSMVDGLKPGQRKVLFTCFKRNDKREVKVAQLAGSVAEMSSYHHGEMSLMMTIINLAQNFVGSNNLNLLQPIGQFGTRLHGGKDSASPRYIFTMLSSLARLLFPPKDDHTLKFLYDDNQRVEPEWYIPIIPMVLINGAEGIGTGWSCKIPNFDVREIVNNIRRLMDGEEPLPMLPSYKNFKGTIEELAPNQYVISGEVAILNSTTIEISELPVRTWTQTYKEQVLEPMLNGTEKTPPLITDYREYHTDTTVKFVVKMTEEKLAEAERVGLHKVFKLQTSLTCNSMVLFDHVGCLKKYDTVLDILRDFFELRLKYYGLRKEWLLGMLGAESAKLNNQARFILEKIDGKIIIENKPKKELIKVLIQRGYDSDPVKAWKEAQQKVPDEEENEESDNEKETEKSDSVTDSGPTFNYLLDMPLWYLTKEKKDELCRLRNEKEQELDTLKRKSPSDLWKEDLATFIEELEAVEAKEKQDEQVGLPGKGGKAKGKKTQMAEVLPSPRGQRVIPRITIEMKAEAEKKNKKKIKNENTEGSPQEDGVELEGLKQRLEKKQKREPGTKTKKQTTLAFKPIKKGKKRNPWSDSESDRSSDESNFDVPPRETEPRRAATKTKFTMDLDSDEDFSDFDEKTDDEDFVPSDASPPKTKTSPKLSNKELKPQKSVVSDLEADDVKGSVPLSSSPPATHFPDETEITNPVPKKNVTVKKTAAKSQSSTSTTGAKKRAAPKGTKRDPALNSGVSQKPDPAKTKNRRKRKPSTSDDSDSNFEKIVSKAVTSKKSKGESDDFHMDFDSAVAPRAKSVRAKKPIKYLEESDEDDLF

For the compound `Cc1cccc2c(Nc3cccc(-c4nc5c(C(N)=O)cccc5[nH]4)c3)c3ccccc3nc12`, the Activity result was “Dose-dependent effect” in [1]; 0.531% with MCF7 [4]; 23.9% in the series with MCF7 [5]; “Dose-dependent effect” in the series with MCF7 [7]; 8.18% in the series on MCF7 [8]; 43.62% in the series on MCF7 [9]. In the series on MCF7 [2], the result was Active. The same compound had a half-life at 1.11 µM in [3] of 27.8 min. The microsomal CLint at 1.11 µM in series [6] came out at 28.4 µL/min/mg. In addition, the Ratio IC50 in the series on HCC1937 is 9.5.
